Where two headings read alike, the source gives them in different places.
What was measured:
MycN = target: T1, MycN (Homo sapiens, UniProt P04198); test: Degradation of MycN protein in SK-N-BE(2) cells (JESS/Western blot); type: cell-based; conditions: for Dmax at 0.5 µM: read-out: % Degradation of MycN (SKNBE2) 24 h, 0.5 μM; for Dmax at 1 µM: read-out: % Degradation of MycN (SKNBE2) 24 h, 1 μM; for Dmax at 3 µM: read-out: % Degradation of MycN (SKNBE2) 24 h, 3 μM; for Dmax at 6 µM: read-out: % Degradation of MycN (SKNBE2) 24 h, 6 μM
T1 construct: endogenous in cells; host or cells: SK-N-BE(2)
T1 sequence (P04198 1-464): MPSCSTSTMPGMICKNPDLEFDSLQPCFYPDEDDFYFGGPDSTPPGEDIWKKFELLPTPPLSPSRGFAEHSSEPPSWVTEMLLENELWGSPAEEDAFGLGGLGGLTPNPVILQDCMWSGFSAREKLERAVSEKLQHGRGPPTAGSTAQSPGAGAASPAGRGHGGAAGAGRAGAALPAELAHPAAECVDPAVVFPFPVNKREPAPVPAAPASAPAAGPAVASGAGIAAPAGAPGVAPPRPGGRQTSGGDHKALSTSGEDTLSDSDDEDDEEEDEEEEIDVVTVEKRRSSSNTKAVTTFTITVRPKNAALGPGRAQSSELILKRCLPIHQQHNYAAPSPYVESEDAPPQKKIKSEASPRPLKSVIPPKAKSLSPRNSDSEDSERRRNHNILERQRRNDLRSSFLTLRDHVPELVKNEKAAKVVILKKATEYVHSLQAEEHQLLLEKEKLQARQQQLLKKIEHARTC
Procedure: (§1) For L363 cells (suspension), 1E6 cells were plated into each well of a 6 well plate. For SK—N-BE(2) cells (adherent), 5E5 cells were plated into each well of a 6 well dish. […] All compounds were diluted to 10 mM in DMSO. Cells were treated with the compound for 24 hrs, then for both cell types, media containing cells were removed from wells into a 15 ml centrifuge tube, and remaining adherent SK—N-BE(2) cells were also scraped from the wells into the appropriate tubes. Tubes were centrifuged, cells were washed with PBS then re-centrifuged to pellet cells. A RIPA buffer cocktail was added to the cells on ice for 5 mins. Cell lysates were clarified by centrifugation and stored at −80 degrees until required. BCA assay was performed on each lysate to determine the protein concentration. For validation studies of antibodies, lysates and antibodies were used at a number of concentrations (Lysates: 2, 1, 0.2 mg/ml; Antibodies: 1 in 50, 1 in 200 dilution). Once an appropriate lysate concentration and antibody concentration was determined, samples were screened in the JESS technology (Protein Simple, San Jose, CA—https://www.proteinsimple.com/jess.html). Target protein antibodies (n-myc and c-myc) were detected in the chemiluminescence channel and loading controls (tubulin and GAPDH) were detected using a Near Infra Red (NIR) labeled secondary antibody. For SK—N-EB2 adherent cells, 5E5 cells in 1.9 mls media were plated into 6 well dishes and incubated for 24 hrs. […] Cells were scrapped off the plate, centrifuged, washed with PBS, centrifuged, then a RIPA buffer cocktail added to the cells (100 ul), centrifuged and stored at −80 for later analysis. For L363 suspension cells, 1E6 cells were plated into 24 well dishes (950 ul media) and incubated for 24 hrs. […] Cells were aspirated into tubes, centrifuged, washed with PBS, centrifuged, then a RIPA buffer cocktail added to the cells (100 ul), centrifuged and stored at −80 for later analysis. For Western blot, a BCA (total protein) assay was run on all samples, these were then run in batches of 5 compounds plus control (DMSO) on each Western blot run—n-myc and c-myc were run in separate experiments in the chemiluminescence channel. Both tubulin and GAPDH were run as loading controls in all lanes in the near infra red channel.

MycC = target: T2, MycC (Homo sapiens, UniProt P01106); test: Degradation of MycC protein in L363 cells (JESS/Western blot); type: cell-based; conditions: for Dmax at 1 µM: read-out: % Degradation of MycC (L-363) 24 h, 1 μM; for Dmax at 3 µM: read-out: % Degradation of MycC (L-363) 24 h, 3 μM; for Dmax at 6 µM: read-out: % Degradation of MycC (L-363) 24 h, 6 μM; for Dmax at 0.5 µM: read-out: % Degradation of MycC (L-363) 24 h, 0.5 μM
T2 construct: endogenous in cells; host or cells: L363
T2 sequence (P01106 whole entry): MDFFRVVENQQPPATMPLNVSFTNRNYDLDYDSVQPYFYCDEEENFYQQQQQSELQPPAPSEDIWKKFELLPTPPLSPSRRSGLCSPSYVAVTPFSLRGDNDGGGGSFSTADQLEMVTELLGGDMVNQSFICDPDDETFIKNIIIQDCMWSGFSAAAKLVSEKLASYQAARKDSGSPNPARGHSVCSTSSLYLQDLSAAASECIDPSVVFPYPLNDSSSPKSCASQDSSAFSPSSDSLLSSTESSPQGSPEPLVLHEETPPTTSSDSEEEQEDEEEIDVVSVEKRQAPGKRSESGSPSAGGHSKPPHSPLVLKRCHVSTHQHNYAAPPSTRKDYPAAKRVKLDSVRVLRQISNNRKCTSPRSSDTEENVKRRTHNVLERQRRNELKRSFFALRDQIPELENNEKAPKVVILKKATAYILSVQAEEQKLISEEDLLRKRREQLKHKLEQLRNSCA
Procedure: as §1

| Compound | Dmax at 0.5 µM (MycN; SKNBE2 cells, 24 h, 0.5 μM) [%] | Dmax at 1 µM (MycN; SKNBE2 cells, 24 h, 1 μM) [%] | Dmax at 3 µM (MycN; SKNBE2 cells, 24 h, 3 μM) [%] | Dmax at 6 µM (MycN; SKNBE2 cells, 24 h, 6 μM) [%] | Dmax at 1 µM (MycC; L-363 cells, 24 h, 1 μM) [%] | Dmax at 3 µM (MycC; L-363 cells, 24 h, 3 μM) [%] | Dmax at 6 µM (MycC; L-363 cells, 24 h, 6 μM) [%] | Dmax at 0.5 µM (MycC; L-363 cells, 24 h, 0.5 μM) [%] | Dmax at 0.5 µM (MycN; SKNBE2, 24 h) [%] | Dmax at 3 µM (MycN; SKNBE2, 24 h) [%] | Dmax at 6 µM (MycN; SKNBE2, 24 h) [%] | Dmax at 0.5 µM (MycC; L-363, 24 h) [%] | Dmax at 1 µM (MycC; L-363, 24 h) [%] | Dmax at 3 µM (MycC; L-363, 24 h) [%] | Dmax at 6 µM (MycC; L-363, 24 h) [%] | Dmax at 1 µM (MycN; SKNBE2, 24 h) [%] |
| --- | --- | --- | --- | --- | --- | --- | --- | --- | --- | --- | --- | --- | --- | --- | --- | --- |
| c1cc(Nc2cc(C3CCCC3)[nH]n2)nc(NC2CCC3(CC2)CNC3)n1 [Compound 40, N^2-(2-Azaspiro[3.5]nonan-7-yl)-N^4-(5-cyclopentyl-1H-pyrazol-3-yl)pyrimidine-2,4-diamine] | 50 to 79 | 80 to 100 | 80 to 100 | 80 to 100 | < 20 | 80 to 100 | 80 to 100 |  |  |  |  |  |  |  |  |  |
| Cn1cc(C(=O)N2CC3(CC(Nc4nccc(Nc5cc(C6CCCC6)[nH]n5)n4)C3)C2)nn1 [Compound 39, (6-((4-((5-Cyclopentyl-1H-pyrazol-3-yl)amino)pyrimidin-2-yl)amino)-2-azaspiro[3.3]heptan-2-yl)(1-methyl-1H-1,2,3-triazol-4-yl)methanone] | 20 to 49 | < 20 | 80 to 100 | 80 to 100 | 20 to 49 | 20 to 49 | 80 to 100 | 20 to 49 |  |  |  |  |  |  |  |  |
| CN1CCC(CNc2nccc(Nc3cc(C4CCCC4)[nH]n3)n2)CC1 [Compound 1] | 20 to 49 | < 20 | 20 to 49 | 80 to 100 |  | < 20 | < 20 |  |  |  |  |  |  |  |  |  |
| CN1CC2(CC(Nc3nccc(Nc4cc(C5CC5)[nH]n4)n3)C2)C1 [Compound 36, N^4-(5-cyclopropyl-1H-pyrazol-3-yl)-N^2-(2-methyl-2-azaspiro[3.3]heptan-6-yl)pyrimidine-2,4-diamine] | < 20 | < 20 | 20 to 49 | 80 to 100 | 50 to 79 | 20 to 49 | 50 to 79 | 20 to 49 |  |  |  |  |  |  |  |  |
| CN1CC2(CCC(Nc3nccc(Nc4cc(C5CCCC5)[nH]n4)n3)CC2)C1 [Compound 20, N^4-(5-Cyclopentyl-1H-pyrazol-3-yl)-N^2-(2-methyl-2-azaspiro[3.5]nonan-7-yl)pyrimidine-2,4-diamine] | 80 to 100 | 80 to 100 | 80 to 100 | 80 to 100 | 80 to 100 | 80 to 100 | 80 to 100 | 80 to 100 |  |  |  |  |  |  |  |  |
| c1cc(Nc2cc(C3CC3)[nH]n2)nc(NC2CCC3(CC2)CNC3)n1 [Compound 33, N^4-(5-Cyclopropyl-1H-pyrazol-3-yl)-N^2-(2-azaspiro[3.5]nonan-7-yl)pyrimidine-2,4-diamine] | 20 to 49 | 20 to 49 | 80 to 100 | 80 to 100 | < 20 | 20 to 49 | 80 to 100 |  |  |  |  |  |  |  |  |  |
| Cn1cc(C(=O)N2CCC(Nc3nccc(Nc4cc(C5CC5)[nH]n4)n3)CC2)nn1 [Compound 37, (4-((4-((5-Cyclopropyl-1H-pyrazol-3-yl)amino)pyrimidin-2-yl)amino)piperidin-1-yl)(1-methyl-1H-1,2,3-triazol-4-yl)methanone] |  | < 20 | 20 to 49 | 20 to 49 |  | 20 to 49 | < 20 |  |  |  |  |  |  |  |  |  |
| CN1CCC(Nc2nccc(Nc3cc(C4CCCC4)[nH]n3)n2)CC1 [Compound 31] |  |  |  |  |  |  |  |  | < 20 | 80 to 100 | 80 to 100 | 50 to 79 | 50 to 79 | 80 to 100 | 80 to 100 |  |
| CN1CC2(CC(Nc3nccc(Nc4cc(C5CCCC5)[nH]n4)n3)C2)C1 [Compound 38, N^4-(5-cyclopentyl-1H-pyrazol-3-yl)-N^2-(2-methyl-2-azaspiro[3.3]heptan-6-yl)pyrimidine-2,4-diamine] | 20 to 49 | 50 to 79 | 80 to 100 | 80 to 100 | 50 to 79 | 20 to 49 | 50 to 79 | 20 to 49 |  |  |  |  |  |  |  |  |
| c1cc(Nc2cc(C3CC3)[nH]n2)nc(NC2CCOCC2)n1 [Compound 65, N4-(5-Cyclopropyl-1H-pyrazol-3-yl)-N2-tetrahydropyran-4-yl-pyrimidine-2,4-diamine] | 20 to 49 | 50 to 79 | 80 to 100 | 80 to 100 | 80 to 100 | 80 to 100 | 80 to 100 | 20 to 49 |  |  |  |  |  |  |  |  |
| CN(CC12CNC(C1)C2)c1nccc(Nc2cc(C3CC3)[nH]n2)n1 [Compound 2, N^2-((2-Azabicyclo[2.1.1]hexan-4-yl)methyl)-N^4-(5-cyclopropyl-1H-pyrazol-3-yl)-N^2-methylpyrimidine-2,4-diamine] | 20 to 49 | < 20 | 20 to 49 | 50 to 79 |  |  |  |  |  |  |  |  |  |  |  |  |
| CN1CC[C@@H](Nc2nccc(Nc3cc(C4CC4)[nH]n3)n2)[C@@H](F)C1 [Compound 42, N4-(5-Cyclopropyl-1H-pyrazol-3-yl)-N2-[(3S,4R)-3-fluoro-1-methyl-4-piperidyl]pyrimidine-2,4-diamine] |  | 20 to 49 | 20 to 49 | 50 to 79 |  |  |  |  |  |  |  |  |  |  |  |  |
| c1cc(Nc2cc(C3CC3)[nH]n2)nc(NCC23CNC(C2)C3)n1 [Compound 3, N^2-((2-Azabicyclo[2.1.1]hexan-4-yl)methyl)-N^4-(5-cyclopropyl-1H-pyrazol-3-yl)pyrimidine-2,4-diamine] |  |  |  |  |  |  |  |  | < 20 | < 20 | 20 to 49 |  |  |  |  | < 20 |

Source: patent US20250177393A1, “MODULATORS OF MYC FAMILY PROTO-ONCOGENE PROTEIN” (Nalo Therapeutics, priority 2022, published 2025)
